# Data as given in patent publication US20100144737A1, “METHODS FOR INHIBITING T HELPER CELL DIFFERENTIATION” (FibroGen, Inc., priority 2008, published 2010).
# What was measured:
# [1] = system: naïve T helper cells; assay: T helper cell number and viability (Guava ViaCount); format: cell-based, human; conditions: day 7
# Procedure: To examine the effect of compounds and methods of the present invention on T helper cell number and viability, the following studies were performed. Human cord blood naive T helper cells (AllCells LLC, Emeryville, Calif.) were stimulated (i.e., T cell receptor (TCR) stimulation) by seeding into 96-well culture dishes coated with 5 μg/ml anti-CD3 antibody (clone UCHT1, R&D Systems, Minneapolis, Minn.), and 5 μg/ml anti-CD28 antibody (clone ANC28.1/D10, Ancell Corporation, Bayport, Minn.), and cultured at 37° C, 5% CO2 in RPMI-1640 (Mediatech Inc., Herndon, Va.) containing 1% FBS, 1 U/ml penicillin-1 μg/ml streptomycin (invitrogen Corporation, Carlsbad, Calif.), and 50 U/ml IL-2 (Roche Diagnostics Corporation, Indianapolis, Ind.). […] The T helper cells were then collected and cell number and cell viability were analyzed using Guava ViaCount reagents and the Guava PCA System (Guava Technologies, Hayward, Calif.).
# In another set of experiments, the effect of compounds and methods of the present invention on T helper cell number and viability was determined. […] The T helper cells were then collected and cell number and cell viability were analyzed using Guava ViaCount reagents and the Guava PCA System (Guava Technologies, Hayward, Calif.).
# [2] = system: naïve T helper cells; assay: Th1 cell differentiation: IFN-γ secretion after second and third TCR stimulation following washout; format: cell-based, human
# Procedure: The effectiveness of compounds of the present invention at reducing Th1 differentiation was examined as follows. Th1 differentiation was induced by culturing anti-CD3 stimulated T cells in the presence of exogenous IL-12. Human cord blood naive T helper cells (AllCells LLC, Emeryville, Calif.) were stimulated (i.e., T cell receptor (TCR) stimulation) by seeding into 96-well culture dishes coated with 5 μg/ml anti-CD3 antibody (clone UCHT1, R&D Systems, Minneapolis, Minn.), and 5 μg/ml anti-CD28 antibody (clone ANC28.1/D10, Ancell Corporation, Bayport, Minn.), and cultured at 37° C., 5% CO2 in RPMI-1640 (Mediatech Inc., Hemdon, Va.) containing 1% FBS, 1 U/ml penicillin-1 μg/ml streptomycin (Invitrogen Corporation, Carlsbad, Calif.), and 50 U/ml IL-2 (Roche Diagnostics Corporation, Indianapolis, Ind.). At time of seeding, cells were cultured with media alone or with media containing 2 ng/ml IL-12 and 10 μg/ml anti-IL-4 to induce Th1 cell differentiation. […]
# The cells were then collected, washed twice with RPMI-1640 media containing 1% FBS, and counted before equal numbers of cells per well were re-stimulated (second T cell receptor (TCR) stimulation following washout of all prior treatments) by re-seeding the cells into 96-well culture dishes coated with 5 μg/ml anti-CD3 antibody and 5 μg/ml anti-CD28 antibody. […] After 24 hours the conditioned media from the cells was collected and analyzed for IFN-γ levels using a MS2400 Tissue Culture Kit (MesoScale Technologies, Gaithersburg, Md.) according to the manufacturer's instructions.
# Thirteen days after the second TCR stimulation described above, the cells were collected, washed twice with RPMI-1640 media containing 1% FBS, and counted before equal numbers of cells per well were stimulated a third time (third TCR stimulation) by re-seeding into 96-well culture dishes coated with 5 μg/ml anti-CD3 antibody and 5 μg/ml anti-CD28 antibody. […]
# In another series of experiments, the effectiveness of compounds of the present invention at reducing Th1 differentiation was determined. […]
smiles,measurement,setting,value
"Cc1nc(C(=O)NCC(=O)O)c(O)c2ccc(Oc3ccccc3)cc12 [Compound A, [(4-Hydroxy-1-methyl-7-phenoxy-isoquinoline-3-carbonyl)-amino]-acetic acid]",percent of viable T helper cells,[1],did not decrease
same,total number of viable T helper cells,[1],did not decrease
same,IFN-γ secretion following the second TCR stimulation,"[2]; compound present only during first TCR stimulation (seven days) with IL-12, 24 hours after re-stimulation",reduced IFN-γ secretion
same,IFN-γ secretion after a third TCR stimulation,"[2]; compound present only during first TCR stimulation with IL-12, thirteen days after the second stimulation, 24 hours",decreased IFN-γ secretion
